{
  "source": "patent US20250002918A1",
  "about": "“COMPOSITIONS AND METHODS FOR TREATMENT OF MIC60 DEPLETED CANCERS AND METASTASIS” (The Wistar Institute of Anatomy and Biology, priority 2021, published 2025)",
  "key": {"[1]": {"tested_on": "PC3 cells transduced with pLKO or shMic60", "assay": "Tumor cell proliferation", "assay_type": "cell-based", "settings": "for suppression of proliferation, Mic60-depleted vs control transfectants: PC3 cells"}, "[2]": {"tested_on": "PC3 cells stably transduced with pLKO or Mic60-directed shRNA (shMic60)", "assay": "Small-molecule drug screening, cell viability (CellTiterGlo)", "settings": "drug screen, 72-h incubation, based on IC50 values (FIG. 4A, 4B)", "method": "(§1) FIG. 4A-FIG. 4I show therapeutic vulnerability of GCN2/Akt signaling exposed by Mic60 depletion. (FIG. 4A and FIG. 4B) PC3 cells transduced with pLKO or shMic60 were analyzed in a high-throughput drug screening (FIG. 4A), and candidate compounds with differential tumor cell killing in shCtrl- or shMic60-transduced cultures (FIG. 4B) were analyzed based on IC50 values (nM). (FIG. 4C) PC3 cells transfected with siMic60 were analyzed for differential ISR gene expression by RNA-Seq. A representative experiment is shown. (FIG. 4D) PC3 cells transfected with siCtrl or siMic60 were analyzed by Western blotting. p, phosphorylated. (FIG. 4E) PC3 cells as in FIG. 4A and FIG. 4B were transfected with ATF4-mScarlet nuclear reporter gene and analyzed by flow cytometry in two independent experiments (Exp). The percentage of cells in gated regions is indicated. (FIG. 4F) Kaplan-Meier survival curves for differential expression of DDIT3 or ATF4 in Mic60-low GBM or pan-kidney cancer cohort comprising kidney chromophobe, kidney renal clear cell carcinoma, and kidney renal papillary cell carcinoma (KIPAN) in the Human Protein Atlas database. The number of patients per each condition and P values are indicated. (FIG. 4G) PC3 cells as in FIG. 4A and FIG. 4B were incubated with vehicle (Veh) or GCN2-IN-1 small-molecule inhibitor to GCN2 and analyzed for Annexin V/PI staining by multiparametric flow cytometry. The percentage of cells in each quadrant is indicated in a representative experiment (n=2). (FIG. 4H) PC3 cells were transfected with siCtrl or GCN2-directed siRNA (siGCN2) and analyzed by Western blotting. (FIG. 4I) PC3 cells were transfected with siCtrl or GCN2-directed siRNA (siGCN2) and analyzed for cell death by Trypan blue exclusion and light microscopy after 72 h. Mean±SD.\nCell viability screening against the MedChem Express anti-cancer library (1,820 compounds) was performed using CellTiterGlo (Promega). PC3 cells stably transduced with pLKO or Mic60-directed shRNA (shMic60) were maintained in complete media, trypsinized, and plated (500 cells/well) in 40 μL of complete medium the day before the experiment in white, clear-bottom 384-well plates. A total of 50 nL of test compound was added to each well using the Janus MDT Nanohead (Perkin-Elmer). Each compound was screened at a final concentration of 10, 1, 0.1, and 0.01 μM. After a 72-h incubation at 37° C. in the presence of 5% CO2, 20 μL of the CellTiterGlo reagent was added to each well. After 15 min, luminescence was measured using the Envision Multimode plate reader (PerkinElmer). The raw data were normalized to % inhibition, where 0% is the relative light units (RLU) in the presence of dimethylsulfoxide, and 100% is the RLU in the presence of 1 μM bortezomib. Estimated half maximal inhibitory concentration (IC50) values for each compound were determined using nonlinear regression fits on the data to a one-site binding model in XlFit (ID Business Solutions Ltd. [IDBS]). Because only 4 data points were used in this calculation, the top and bottom of the curve was fixed to 100% and 0%, respectively, with a constant slope value of 1."}, "Mic60-silenced cells": {"tested_on": "Mic60-silenced cells", "assay": "Tumor cell invasion (Matrigel)", "assay_type": "cell-based", "settings": "Mic60-silenced cells reconstituted with the scavenger", "method": "FIG. 3A-FIG. 3G show Mic60 regulation of tumor cell motility and metastasis. (FIG. 3A) PC3 cells transduced with pLKO or shMic60 were analyzed for circularity (Top; 1=perfect sphere) and surface area (Bottom). Each symbol corresponds to an individual determination. Min to max values are indicated (pLKO, n=36; shMic60, n=39). *** P<0.0001 to 0.0009. (FIG. 3B) PC3 cells as in FIG. 3A were analyzed by Western blotting. (FIG. 3C) PC3 cells transduced with pLKO or shMic60 were analyzed for single-cell motility in 2D contour plots by time-lapse video microscopy. Each tracing corresponds to the movements of an individual cell (pLKO, n=90; shMic60, n=94). The average speed of cell movements (velocity [Vel], μm/min) and distance traveled (Dis; μm) are indicated. Mean±SD (n=3). P<0.0001. […] (FIG. 3D) PC3 cells as in FIG. 3A or WT or Mic60 KO PC3 cells were analyzed for invasion across Matrigel-coated inserts and quantified. […] (FIG. 3F) PC3 cells as in FIG. 3A were injected into the spleen of NSG mice, and liver samples harvested after 11 d were stained with hematoxylin/eosin, and the number (FIG. 3F, Top) and surface area (FIG. 3F, Bottom) of metastatic foci were quantified by morphometry. […] (FIG. 3G) Matched patient samples of LUAD representative of normal parenchyma (N), primary tumor (P), or metastasis (M) were analyzed for differential Mic60 expression by RT-PCR. […]"}, "[3]": {"tested_on": "PC3 cells transduced with pLKO or shMic60", "assay": "Annexin V/PI staining by multiparametric flow cytometry", "assay_type": "cell-based", "settings": "preferentially in Mic60-silenced PC3 cells compared to control cultures (FIG. 4G)", "method": "as §1, with “(FIG. 4F) Kaplan-Meier survival curves for differential expression of DDIT3 or ATF4 in Mic60-low GBM or pan-kidney cancer cohort comprising kidney chromophobe, kidney renal clear cell carcinoma, and kidney renal papillary cell carcinoma (KIPAN) in the Human Protein Atlas database. The number of patients per each condition and P values are indicated.” left out, “The percentage of cells in each quadrant is indicated in a representative experiment (n=2).” left out, “Mean±SD.” left out"}, "[4]": {"tested_on": "PC3 cells transduced with pLKO or shMic60", "assay": "Caspase-dependent cell death", "assay_type": "cell-based"}, "[5]": {"tested_on": "Mic60-silenced tumor cells", "assay": "Focal adhesion (FA) dynamics after Mic60 silencing", "assay_type": "cell-based"}, "PC3 cells": {"tested_on": "PC3 cells", "assay": "Single-cell motility by time-lapse videomicroscopy", "assay_type": "cell-based", "settings": "Mic60-silenced PC3 cells vs control transfectants", "method": "(§2) Cells ([…]) were seeded in 4-well Ph+ Chambers (Ibidi) in complete growth medium and allowed to attach for 16 h at 37° C. Time-lapse videomicroscopy was performed over 10 h, with a time-lapse interval of 10 min. Stacks were imported into Image J Fiji software for analysis, and at least 10 to 20 cells per condition were tracked using the Manual Tracking plugin for Image J Fiji. Tracking data were exported into the Chemotaxis and Migration Tool v. 2.0 (Ibidi) for graphing and calculation of the mean and SD of speed and accumulated distance of movement. For directional cell migration, wounds were made in monolayers of PC3 cells using a 10-μL pipette tip. Cell debris were washed off, and cultures were maintained in complete growth medium containing 10% fetal bovine serum at 37° C. and 5% CO2. Time-lapse imaging of migrating cells was performed using a TE300 inverted microscope (Nikon) equipped with an incubator set at 37° C., 5% CO2, and 95% relative humidity. Each image was acquired using a 10× objective of the same fields at each 10-min interval for a total of 24 h."}, "LN229 cells": {"tested_on": "LN229 cells", "assay": "Single-cell motility by time-lapse videomicroscopy", "assay_type": "cell-based", "settings": "Mic60-silenced LN229 cells vs control transfectants", "method": "as §2"}},
  "data": [
    {"smiles": "O=c1[nH]c2ccccc2n1C1CCN(Cc2ccc(-c3nc4cc5[nH]cnc5cc4nc3-c3ccccc3)cc2)CC1", "note": "[Akt inhibitor VIII]", "values": [
      {"measurement": "suppression of proliferation, Mic60-depleted vs control transfectants", "setting": "[1]", "result": "suppressed proliferation selectively of Mic60-depleted PC3 cells"},
      {"measurement": "differential tumor cell killing, Mic60-silenced vs control cultures", "setting": "[2]", "result": "killed Mic60-silenced PC3 cells more efficiently than control cultures"}
    ]},
    {"smiles": "CC1(C)CCC(c2ccc(Cl)cc2)=C(CN2CCN(c3ccc(C(=O)NS(=O)(=O)c4ccc(N[C@H](CCN5CCOCC5)CSc5ccccc5)c(S(=O)(=O)C(F)(F)F)c4)cc3)CC2)C1", "note": "[Navitoclax]", "values": [
      {"measurement": "differential tumor cell killing, Mic60-silenced vs control cultures", "setting": "[2]", "result": "preferential killing against Mic60-low PC3 cells"}
    ]},
    {"smiles": "C/C(=N\\NC(=S)N1CCC1)c1ccccn1", "note": "[NSC319726]", "values": [
      {"measurement": "differential tumor cell killing, Mic60-silenced vs control cultures", "setting": "[2]", "result": "preferential killing against Mic60-low PC3 cells"}
    ]},
    {"smiles": "CC1(C)CC(NC(=O)C[P+](c2ccccc2)(c2ccccc2)c2ccccc2)CC(C)(C)N1[O]", "note": "[MitoTempo]", "values": [
      {"measurement": "tumor cell invasion", "setting": "Mic60-silenced cells", "result": "normalized tumor cell invasion to control levels"}
    ]},
    {"smiles": "COc1cc2c(cc1OC)CN(CCc1ccc(NC(=O)c3cc(OC)c(OC)cc3NC(=O)c3cnc4ccccc4c3)cc1)CC2", "note": "[Tariquidar]", "values": [
      {"measurement": "differential tumor cell killing, Mic60-silenced vs control cultures", "setting": "[2]", "result": "preferential killing against Mic60-low PC3 cells"}
    ]},
    {"smiles": "COc1cc(/C=C/C(=O)CC(=O)/C=C/c2ccc(O)c(OC)c2)ccc1O", "note": "[curcumin]", "values": [
      {"measurement": "differential tumor cell killing, Mic60-silenced vs control cultures", "setting": "[2]", "result": "preferential killing against Mic60-low PC3 cells"}
    ]},
    {"smiles": "c1nn(C2CCOCC2)cc1Nc1ncc2nnn(-c3ccc4cn[nH]c4c3)c2n1", "note": "[GCN2-IN-1]", "values": [
      {"measurement": "Annexin V-associated apoptosis", "setting": "[3]", "result": "activated Annexin V-associated apoptosis"},
      {"measurement": "proliferation (cell number) with GCN2 inhibitor", "setting": "[1]; pLKO control PC3 cells", "result": "3.3×10^5±0.62×10^5 cells"},
      {"measurement": "proliferation (cell number) with GCN2 inhibitor", "setting": "[1]; shMic60 PC3 cells, P=0.009 vs pLKO", "result": "1.95×10^5±0.4×10^5 cells"},
      {"measurement": "differential tumor cell killing, Mic60-silenced vs control cultures", "setting": "[2]", "result": "killed Mic60-silenced PC3 cells more efficiently than control cultures"},
      {"measurement": "caspase-dependent cell death", "setting": "[4]; pLKO control PC3 cells", "result": "8.4±6.3", "unit": "%"},
      {"measurement": "caspase-dependent cell death", "setting": "[4]; shMic60 PC3 cells, P=0.04 vs pLKO", "result": "23.1±5.6", "unit": "%"}
    ]},
    {"smiles": "CN(c1ncccc1CNc1nc(Nc2ccc3c(c2)CC(=O)N3)ncc1C(F)(F)F)S(C)(=O)=O", "note": "[FAKi]", "values": [
      {"measurement": "FA dynamics", "setting": "[5]", "result": "normalized FA dynamics"},
      {"measurement": "single-cell motility", "setting": "PC3 cells", "result": "restored the single-cell motility of PC3 or LN229 cells to levels of control transfectants"},
      {"measurement": "single-cell motility", "setting": "LN229 cells", "result": "restored the single-cell motility of PC3 or LN229 cells to levels of control transfectants"}
    ]},
    {"smiles": "NC1(c2ccc(-c3nc4ccn5c(=O)[nH]nc5c4cc3-c3ccccc3)cc2)CCC1", "note": "[MK2206]", "values": [
      {"measurement": "suppression of proliferation, Mic60-depleted vs control transfectants", "setting": "[1]", "result": "suppressed proliferation selectively of Mic60-depleted PC3 cells"}
    ]},
    {"smiles": "COc1cc([C@@H]2c3cc4c(cc3[C@H](O)[C@H]3COC(=O)[C@H]23)OCO4)cc(OC)c1OC", "note": "[podophyllotoxin]", "values": [
      {"measurement": "differential tumor cell killing, Mic60-silenced vs control cultures", "setting": "[2]", "result": "preferential killing against Mic60-low PC3 cells"}
    ]},
    {"smiles": "C/C(=N\\NC(=O)c1cccc(S(=O)(=O)N2CCOCC2)c1)c1cc(Cl)ccc1O", "note": "[SP2509]", "values": [
      {"measurement": "differential tumor cell killing, Mic60-silenced vs control cultures", "setting": "[2]", "result": "preferential killing against Mic60-low PC3 cells"}
    ]},
    {"smiles": "CS(=O)(=O)N1CCC(NC(=O)c2[nH]ncc2NC(=O)c2c(Cl)cccc2Cl)CC1", "note": "[NVP-LCQ195]", "values": [
      {"measurement": "differential tumor cell killing, Mic60-silenced vs control cultures", "setting": "[2]", "result": "preferential killing against Mic60-low PC3 cells"}
    ]}
  ]
}
